# Measured values: publication PMC7126094 (Bioorganic & Medicinal Chemistry Letters, 2019)
# “Also recorded” adds a separate entry of the source. Where two headings read alike, the source gives them in different places.
# Key:
# [1] = test system: MERS-CoV
# [2] = test system: NIH 3T3: mouse embryonic fibroblast cell line
# [3] = test system: HFL-1: human embryonic lung cell line
# [4] = in vitro; settings: African green monkey
# [5] = test system: L929: mouse fibroblast cell line
# [6] = test system: CHO-K1: Chinese hamster ovary cell line
# [7] = human, microsomes
# [8] = mouse, microsomes
# [9] = rat, microsomes
# [10] = test system: VERO: African green monkey kidney cell line
# [11] = target: hERG (Homo sapiens, UniProt Q12809); assay: hERG binding assay
# hERG, sequence (Q12809 whole entry): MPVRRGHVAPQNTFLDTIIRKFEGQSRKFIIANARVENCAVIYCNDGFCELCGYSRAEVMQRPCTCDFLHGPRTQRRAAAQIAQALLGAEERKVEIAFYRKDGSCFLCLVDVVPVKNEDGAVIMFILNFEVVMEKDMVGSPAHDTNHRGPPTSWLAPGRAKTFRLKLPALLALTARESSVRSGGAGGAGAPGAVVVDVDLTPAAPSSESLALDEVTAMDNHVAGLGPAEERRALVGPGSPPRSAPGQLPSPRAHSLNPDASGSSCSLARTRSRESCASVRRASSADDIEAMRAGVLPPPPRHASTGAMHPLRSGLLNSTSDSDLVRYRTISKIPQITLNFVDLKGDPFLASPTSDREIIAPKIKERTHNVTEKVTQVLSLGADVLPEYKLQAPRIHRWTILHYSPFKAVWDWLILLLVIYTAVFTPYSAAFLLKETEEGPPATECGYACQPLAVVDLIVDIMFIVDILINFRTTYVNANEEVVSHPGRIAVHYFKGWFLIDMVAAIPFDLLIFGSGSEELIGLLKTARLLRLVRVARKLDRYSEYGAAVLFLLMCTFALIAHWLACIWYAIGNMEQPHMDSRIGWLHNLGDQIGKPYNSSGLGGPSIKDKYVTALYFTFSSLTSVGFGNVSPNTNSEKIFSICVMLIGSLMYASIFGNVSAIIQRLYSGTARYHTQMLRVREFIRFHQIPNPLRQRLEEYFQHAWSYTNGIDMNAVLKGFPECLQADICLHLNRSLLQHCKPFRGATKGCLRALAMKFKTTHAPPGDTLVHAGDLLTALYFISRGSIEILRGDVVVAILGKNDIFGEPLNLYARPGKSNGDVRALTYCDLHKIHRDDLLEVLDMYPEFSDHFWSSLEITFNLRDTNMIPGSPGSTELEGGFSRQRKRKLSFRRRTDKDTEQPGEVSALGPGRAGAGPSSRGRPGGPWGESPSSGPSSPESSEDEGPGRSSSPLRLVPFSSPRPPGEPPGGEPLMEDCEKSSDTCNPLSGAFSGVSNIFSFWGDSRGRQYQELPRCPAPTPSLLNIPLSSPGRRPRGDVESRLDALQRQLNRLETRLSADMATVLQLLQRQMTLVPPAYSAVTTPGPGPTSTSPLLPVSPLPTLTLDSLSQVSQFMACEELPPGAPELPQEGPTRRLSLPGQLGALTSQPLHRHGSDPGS
molecule,measurement,setting,value
"5,6,8-Tichloro-2-((2,4-difluorophenyl)amino)-3-isobutyrylquinolin-4(1H)-one [Compound 6y]",IC50,[1]; read-out: IC50 (MERS-CoV inhibitory activity),0.129 ± 0.026 µM
"CC(=O)c1c(NC(C)C)[nH]c2c(C(C)C)cccc2c1=O [Compound 6a, 3-Aetyl-8-isopropyl-2-(isopropylamino)quinolin-4(1H)-one]",inhibitory effect on MERS-CoV (in words),[1],no inhibitory effects
"CC(=O)c1c(NC(C)C)[nH]c2c(C)cc(C)cc2c1=O [Compound 6b, 3-Aetyl-2-(isopropylamino)-6,8-dimethylquinolin-4(1H)-one]",inhibitory effect on MERS-CoV (in words),[1],no inhibitory effects
"CC(C)Nc1[nH]c2c(C(F)(F)F)cc(Cl)cc2c(=O)c1C(=O)c1ccccc1 [Compound 6c, 3-Bnzoyl-6-chloro-2-(isopropylamino)-8-(trifluoromethyl)quinolin-4(1H)-one]",inhibitory effect on MERS-CoV (in words),[1],detrimental for inhibitory effect; also recorded: completely abolished activity
"CC(=O)c1c(N2CCCCC2)[nH]c2c(F)cc(F)cc2c1=O [Compound 6i, 3-Acetyl-6,8-difluoro-2-(piperidin-1-yl)quinolin-4(1H)-one]",inhibitory effect on MERS-CoV (in words),[1],no inhibitory effect
"CC(=O)c1c(N2CCOCC2)[nH]c2c(F)cc(F)cc2c1=O [Compound 6j, 3-Acetyl-6,8-difluoro-2-morpholinoquinolin-4(1H)-one]",inhibitory effect on MERS-CoV (in words),[1],no inhibitory effect
"CCCCNc1[nH]c2c(F)cc(F)cc2c(=O)c1C(C)=O [Compound 6k, 3-Acetyl-2-(butylamino)-6,8-difluoroquinolin-4(1H)-one]",inhibitory effect on MERS-CoV (in words),[1],no inhibitory effect
"COc1cccc(Nc2[nH]c3c(F)cc(F)cc3c(=O)c2C(C)=O)c1 [Compound 6p, 3-Acetyl-6,8-difluoro-2-((3-methoxyphenyl)amino)quinolin-4(1H)-one]",inhibitory effect on MERS-CoV (in words),[1],no inhibitory effects
"COc1ccc(Nc2[nH]c3c(F)cc(F)cc3c(=O)c2C(C)=O)cc1 [Compound 6q, 3-Acetyl-6,8-difluoro-2-((4-methoxyphenyl)amino)quinolin-4(1H)-one]",inhibitory effect on MERS-CoV (in words),[1],no inhibitory effects
"CC(C)C(=O)c1c(Nc2ccc(F)c(F)c2F)[nH]c2c(F)cc(F)cc2c1=O [Compound 6u, 6,8-Difluoro-3-isobutyryl-2-((2,3,4-trifluorophenyl)amino)quinolin-4(1H)-one]",cytotoxicity (in words),[2],no cytotoxicity
same,cytotoxicity (in words),[3],no cytotoxicity
same,IC50,[4],86.1 µM
same,cytotoxicity (in words),[5],no cytotoxicity
same,cytotoxicity (in words),[6],no cytotoxicity
same,metabolic stability (in words),[7],good metabolic stability
same,metabolic stability (in words),[8],good metabolic stability
same,metabolic stability (in words),[9],good metabolic stability
same,cytotoxicity (in words),[10],no cytotoxicity
same,hERG binding affinity (in words),[11],low hERG binding affinity
